Measured values from article PMC8671953 (Nanotheranostics, 2022).

Experiments:
[1] = cited from earlier work
[2] = test system: GCPII; parameters: method as in PMID 23169655, PMID 26826008; details: ref [8], [9]; cited from earlier work
[3] = test system: EAE mice; details: cited from earlier work
[4] = target: human recombinant GCPII enzyme (Homo sapiens, UniProt Q04609); test: GCPII activity assay (IC50), NAA-[3H]-G hydrolysis; format: biochemical; details: human recombinant GCPII 40 pM, NAA-[3H]-G 30 nM, 37 °C, 20 min
Chain of human recombinant GCPII enzyme (Q04609 whole entry): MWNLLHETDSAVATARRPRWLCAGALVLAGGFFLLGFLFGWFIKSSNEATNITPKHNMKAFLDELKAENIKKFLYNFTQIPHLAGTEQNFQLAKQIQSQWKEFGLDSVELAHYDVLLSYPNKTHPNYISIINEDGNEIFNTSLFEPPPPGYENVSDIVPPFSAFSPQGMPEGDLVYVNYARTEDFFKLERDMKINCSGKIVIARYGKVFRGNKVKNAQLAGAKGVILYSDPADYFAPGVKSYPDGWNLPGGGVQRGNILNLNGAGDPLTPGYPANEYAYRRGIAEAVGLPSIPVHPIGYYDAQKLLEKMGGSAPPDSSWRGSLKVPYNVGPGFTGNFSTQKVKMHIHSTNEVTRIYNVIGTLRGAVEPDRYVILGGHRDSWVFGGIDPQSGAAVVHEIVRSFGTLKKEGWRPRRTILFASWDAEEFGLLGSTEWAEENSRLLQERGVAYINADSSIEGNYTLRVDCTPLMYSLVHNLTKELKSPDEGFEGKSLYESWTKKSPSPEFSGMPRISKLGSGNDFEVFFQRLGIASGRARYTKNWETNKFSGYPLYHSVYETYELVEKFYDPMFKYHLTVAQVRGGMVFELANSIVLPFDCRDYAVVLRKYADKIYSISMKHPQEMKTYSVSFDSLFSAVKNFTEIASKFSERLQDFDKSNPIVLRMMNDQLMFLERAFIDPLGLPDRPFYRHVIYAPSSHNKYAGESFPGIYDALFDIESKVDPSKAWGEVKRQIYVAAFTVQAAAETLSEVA

| Structure (SMILES) | clearance from circulation ([1]; free drug, ref [9]) | brain penetration (AUCbrain/AUCplasma) ([1]; ref [37]) | oral bioavailability (F) ([1]; ref [37]) | IC50 [2] | effect on EAE disease score ([3]; free 2-PMPA treatment, ref [8], [9]) | minimal dose required for positive behavioral effects and alterations in brain NAAG levels ([3]; previous dose response studies, ref [9]) | IC50 [4] |
| --- | --- | --- | --- | --- | --- | --- | --- |
| O=C(O)CCC(CP(=O)(O)O)C(=O)O (stereo not shown) [2-PMPA, 2-(phosphonomethyl)-pentanedioic acid] | cleared from circulation within six hours | < 0.02 | < 2% | […] | no effect on EAE disease score | […] |  |
| [N-]=[N+]=NCCOCCOCCOCCOCCOCCOCCOCCOCCOCCOCCOC(=O)CCC(CP(=O)(O)O)C(=O)O (stereo not shown) [2-PMPA-PEG-azide] |  |  |  |  |  |  | 1.6 nM |
